PubChem BioAssay (NCI)
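At the GI50, growth is halved. TGI: total growth inhibition.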

Assays:
Assay in all cases: NCI anticancer screen, dose series, 384-well format
786-0 renal = system: 786-0 renal
A498 renal = system: A498 renal
A549 NSCLC = system: A549 NSCLC
ACHN renal = system: ACHN renal
BT-549 breast = system: BT-549 breast
CAKI-1 renal = system: CAKI-1 renal
CCRF-CEM leukemia = system: CCRF-CEM leukemia
COLO 205 colon = system: COLO 205 colon
DU-145 prostate = system: DU-145 prostate
EKVX NSCLC = system: EKVX NSCLC
HCC-2998 colon = system: HCC-2998 colon
HCT-15 colon = system: HCT-15 colon
HL-60(TB) leukemia = system: HL-60(TB) leukemia
HOP-62 NSCLC = system: HOP-62 NSCLC
HOP-92 NSCLC = system: HOP-92 NSCLC
HS 578T breast = system: HS 578T breast
HT29 colon = system: HT29 colon
IGROV1 ovarian = system: IGROV1 ovarian
KM12 colon = system: KM12 colon
M14 melanoma = system: M14 melanoma
MALME-3M melanoma = system: MALME-3M melanoma
MCF7 breast = system: MCF7 breast
MDA-MB-231 breast = system: MDA-MB-231 breast
MDA-MB-435 melanoma = system: MDA-MB-435 melanoma
MDA-MB-468 breast = system: MDA-MB-468 breast
MOLT-4 leukemia = system: MOLT-4 leukemia
NCI-H226 lung = system: NCI-H226 lung
NCI-H23 lung = system: NCI-H23 lung
NCI-H322M lung = system: NCI-H322M lung
NCI-H460 NSCLC = system: NCI-H460 NSCLC
NCI-H522 lung = system: NCI-H522 lung
NCI/ADR-RES ovarian = system: NCI/ADR-RES ovarian
OVCAR-3 ovarian = system: OVCAR-3 ovarian
OVCAR-4 ovarian = system: OVCAR-4 ovarian
OVCAR-5 ovarian = system: OVCAR-5 ovarian
OVCAR-8 ovarian = system: OVCAR-8 ovarian
PC-3 prostate = system: PC-3 prostate
RPMI-8226 leukemia = system: RPMI-8226 leukemia
RXF 393 renal = system: RXF 393 renal
SF-268 CNS = system: SF-268 CNS
SF-295 CNS = system: SF-295 CNS
SF-539 CNS = system: SF-539 CNS
SK-MEL-2 melanoma = system: SK-MEL-2 melanoma
SK-MEL-28 melanoma = system: SK-MEL-28 melanoma
SK-MEL-5 melanoma = system: SK-MEL-5 melanoma
SK-OV-3 ovarian = system: SK-OV-3 ovarian
SN12C renal = system: SN12C renal
SNB-19 CNS = system: SNB-19 CNS
SNB-75 CNS = system: SNB-75 CNS
SR leukemia = system: SR leukemia
SW-620 colon = system: SW-620 colon
T-47D breast = system: T-47D breast
TK-10 renal = system: TK-10 renal
U251 glioblastoma = system: U251 glioblastoma
UACC-257 melanoma = system: UACC-257 melanoma
UACC-62 melanoma = system: UACC-62 melanoma

## NC(=O)c1ccc(I)c([N+](=O)[O-])c1
786-0 renal
  GI50: > 100 µM
  TGI: > 100 µM
A498 renal
  GI50: 91.6 µM
  TGI: > 100 µM
A549 NSCLC
  GI50: > 100 µM
  TGI: > 100 µM
ACHN renal
  GI50: > 100 µM
  TGI: > 100 µM
BT-549 breast
  GI50: 71.1 µM
  TGI: > 100 µM
CAKI-1 renal
  GI50: 20.6 µM
  TGI: 36.1 µM
CCRF-CEM leukemia
  GI50: 21.4 µM
  TGI: 45.3 µM
COLO 205 colon
  GI50: > 100 µM
  TGI: > 100 µM
DU-145 prostate
  GI50: > 100 µM
  TGI: > 100 µM
EKVX NSCLC
  GI50: 19.4 µM
  TGI: 35.2 µM
HCC-2998 colon
  GI50: 28.2 µM
  TGI: 56.2 µM
HCT-15 colon
  GI50: 44.1 µM
  TGI: > 100 µM
HL-60(TB) leukemia
  GI50: 18 µM
  TGI: 32.1 µM
HOP-62 NSCLC
  GI50: 17.9 µM
  TGI: 36.7 µM
HOP-92 NSCLC
  GI50: 21.7 µM
  TGI: 42.8 µM
HS 578T breast
  GI50: 32.4 µM
  TGI: > 100 µM
HT29 colon
  GI50: 44 µM
  TGI: > 100 µM
IGROV1 ovarian
  GI50: 97.7 µM
  TGI: > 100 µM
KM12 colon
  GI50: 57.4 µM
  TGI: > 100 µM
M14 melanoma
  GI50: 31 µM
  TGI: > 100 µM
MALME-3M melanoma
  GI50: 40.6 µM
  TGI: > 100 µM
MCF7 breast
  GI50: > 100 µM
  TGI: > 100 µM
MDA-MB-231 breast
  GI50: 70.2 µM
  TGI: > 100 µM
MDA-MB-435 melanoma
  GI50: > 100 µM
  TGI: > 100 µM
MDA-MB-468 breast
  GI50: 10 µM
  TGI: 23.3 µM
MOLT-4 leukemia
  GI50: 20.5 µM
  TGI: 38.8 µM
NCI-H226 lung
  GI50: 53.4 µM
  TGI: > 100 µM
NCI-H23 lung
  GI50: 24.3 µM
  TGI: 52.5 µM
NCI-H322M lung
  GI50: 33 µM
  TGI: 95.7 µM
NCI-H460 NSCLC
  GI50: 78.5 µM
  TGI: > 100 µM
NCI-H522 lung
  GI50: 15.4 µM
  TGI: 30.1 µM
NCI/ADR-RES ovarian
  GI50: > 100 µM
  TGI: > 100 µM
OVCAR-3 ovarian
  GI50: 23.6 µM
  TGI: 58.4 µM
OVCAR-4 ovarian
  GI50: 17.9 µM
  TGI: 31.9 µM
OVCAR-5 ovarian
  GI50: 21 µM
  TGI: 39.9 µM
OVCAR-8 ovarian
  GI50: > 100 µM
  TGI: > 100 µM
PC-3 prostate
  GI50: > 100 µM
  TGI: > 100 µM
RPMI-8226 leukemia
  GI50: 33 µM
  TGI: 78.9 µM
RXF 393 renal
  GI50: 21.4 µM
  TGI: 36.3 µM
SF-268 CNS
  GI50: > 100 µM
  TGI: > 100 µM
SF-295 CNS
  GI50: > 100 µM
  TGI: > 100 µM
SF-539 CNS
  GI50: > 100 µM
  TGI: > 100 µM
SK-MEL-2 melanoma
  GI50: 26.8 µM
  TGI: 72.8 µM
SK-MEL-28 melanoma
  GI50: 44.3 µM
  TGI: > 100 µM
SK-MEL-5 melanoma
  GI50: 25.2 µM
  TGI: 89.3 µM
SK-OV-3 ovarian
  GI50: 68.7 µM
  TGI: > 100 µM
SN12C renal
  GI50: 62.7 µM
  TGI: > 100 µM
SNB-19 CNS
  GI50: > 100 µM
  TGI: > 100 µM
SNB-75 CNS
  GI50: 21.4 µM
  TGI: > 100 µM
SR leukemia
  GI50: 25 µM
  TGI: 57.3 µM
SW-620 colon
  GI50: > 100 µM
  TGI: > 100 µM
T-47D breast
  GI50: 21 µM
  TGI: 38.1 µM
TK-10 renal
  GI50: > 100 µM
  TGI: > 100 µM
U251 glioblastoma
  GI50: 53.1 µM
  TGI: > 100 µM
UACC-257 melanoma
  GI50: 39.8 µM
  TGI: > 100 µM
UACC-62 melanoma
  GI50: 39 µM
  TGI: > 100 µM
